This is an account of results in US10449186B2, “Phenylethynyl-substituted benzenes and heterocycles for the treatment of cancer” (UNIVERSITY OF KENTUCKY RESEARCH FOUNDATION, priority 2017, dated 2019).

Like-named read-outs stand apart in the source and are kept apart here.

Series [1] relates to LS174T colon cancer cells. Briefly: LS174T cell proliferation assay. Set-up: effects on LS174T colon cancer cell proliferation (Table 3): unit not given here. Type of series: cell-based. As to conditions: for inhibition at 1 µM / inhibition at 0.1 µM / inhibition at 10 µM / IC50 / inhibition at 0.03 µM: Homo sapiens, LS174T; for IC50: read-out: IC50, LS174T cell proliferation assay. The method, then: Cell proliferation assay. LS174T cells were grown in RPMI medium (Mediatech) supplemented with 5% fetal bovine serum and 1% penicillin/streptomycin. For cell proliferation assays, 3×10^4 cells/well growing in 12-well plates were treated with DMSO or inhibitors. The cell numbers and viability were analyzed by Vi-Cell Cell Viability Analyzer after 4 days. The IC50 values were calculated with GraphPad Prim 5.

The test system of series [2] is cyclin D1. The series is described as follows: Western blot, cyclin D1 expression in LS174T cells. In kind it is cell-based. As to conditions: 300 nM. The procedure:
(§1) FIG. 2A is a western blot showing the effects of 4-((2,6-difluorophenyl)ethynyl)-N,N-dimethylaniline (2), 4-((2,6-difluorophenyl)ethynyl)-N,N-dimethylisoquinolin-1-amine (5nn), and 4-((2,6-difluorophenyl)ethynyl)-N-methylisoquinolin-1-amine (5oo) on the expression of […] and p21^Wif1/Cip1 in LS174T cells at 300 nM concentrations.
(§2) Western blotting. Western blotting was performed as described previously. The following antibodies were used: anti-c-myc (Epitomics, 1472-1), anti-p21^Wif1/Cip1 (Cell Signaling, 2947), anti-β-tubulin (DSHB, E7).

Series [3] concerns p21^Wif1/Cip1. The series is described as follows: Western blot, p21^Wif1/Cip1 expression in LS174T cells. Type of series: cell-based. Conditions: 300 nM. The method, then:
as §1, §2
On the technique in general: Immunoblotting shows a protein as a band on a membrane.

The nature of series [4]: Water solubility. Conditions: hydrochloride salts.
The mark [5] stands for this setting: Table 2, 100 nM, read-out: inhibition of cell proliferation (%) of colon cancer LS174T cells.
The mark [6] stands for this setting: Table 2, 1 μM, read-out: inhibition of cell proliferation (%) of colon cancer LS174T cells.
Where [7] appears, read: Table 2, 10 μM, read-out: inhibition of cell proliferation (%) of colon cancer LS174T cells.
Where [8] appears, read: read-out: inhibition of cell proliferation (%) of colon cancer LS174T cells.
Where [9] appears, read: read-out: inhibition of LS174T colon cancer cell proliferation.

As usually defined, the melting point is the temperature, or range, at which the solid turns liquid. Take `Cn1ncc2ccc(C#Cc3c(F)cccc3F)cc21` [Compound 5k, 6-((2,6-Difluorophenyl)ethynyl)-1-methyl-1H-indazole]: the melting point was in the range of 117 to 119 °C. Besides, the inhibition at 1 µM in series [1] (1 μM, read-out: inhibition of LS174T colon cancer cell proliferation) is more than 75%. Moreover, in series [1] (setting [5]), the inhibition at 0.1 µM was 0%. In series [1] (setting [6]), the inhibition at 1 µM is 85.9 ± 5.4%. In addition, the inhibition at 10 µM in series [1] (setting [7]) stood at 98.1 ± 0.4%.

Compound `Fc1cccc(F)c1C#Cc1cnc(Cl)c2ccccc12` [Compound 5kk, 1-Chloro-4-((2,6-difluorophenyl)ethynyl)isoquinoline] displayed a melting point of 145 to 146 °C. In addition, in series [1] (setting [8]), the inhibition at 0.1 µM turned out to be 0.8 ± 36.1%, the inhibition at 1 µM stood at 48.1 ± 18.1% and the inhibition at 10 µM came to 94 ± 0.5%.

In turn, `Fc1ccc2ccnc(C#Cc3c(F)cccc3F)c2c1` [Compound 5ll, 1-((2,6-Difluorophenyl)ethynyl)-7-fluoroisoquinoline] gave a melting point of 177 to 178 °C. In addition, in series [1] (setting [8]), the inhibition at 0.1 µM amounted to 0%, the inhibition at 1 µM turned out to be 71.1 ± 3.5% and the inhibition at 10 µM was 96.2 ± 0.1%.

Consider `Fc1cccc(F)c1C#Cc1ccc2ccccc2n1` [Compound 5m, 2-((2,6-Difluorophenyl)ethynyl)quinoline], for which the melting point lay in the range of 127 to 129 °C. In series [1] (setting [8]), the inhibition at 0.1 µM amounted to 6.1 ± 27%, the inhibition at 1 µM turned out to be 67.3 ± 13.6% and the inhibition at 10 µM was 93.8 ± 1.7%.

As to `Nc1ncc(C#Cc2c(F)cccc2F)c2ccccc12` [Compound 5mm, 4-((2,6-Difluorophenyl)ethynyl)isoquinolin-1-amine], the melting point fell in the range of 200 to 201 °C. In addition, in series [1] (setting [8]), the inhibition at 0.1 µM turned out to be 35.5 ± 1.7%, the inhibition at 1 µM came out at 86.2 ± 1.6% and the inhibition at 10 µM stood at 93.1 ± 1.6%.

For the compound `Fc1cccc(F)c1C#Cc1cnc2ccccc2c1` [Compound 5n, 3-((2,6-Difluorophenyl)ethynyl)quinoline], the melting point was in the range of 115 to 117 °C. For the same compound, in series [1] (setting [8]), the inhibition at 0.1 µM amounted to 0%, the inhibition at 1 µM stood at 41.7 ± 6.5% and the inhibition at 10 µM was found to be 90.4 ± 1%.

As for `CN(C)c1ncc(C#Cc2c(F)cccc2F)c2ccccc12` [Compound 5nn, 4-((2,6-difluorophenyl)ethynyl)-N,N-dimethylisoquinolin-1-amine], the melting point lay in the range of 122 to 124 °C. Further, the IC50 in series [1] is 11.8 ± 1.5 nM. Further, in series [1] (setting [8]), the inhibition at 0.03 µM stood at 86 ± 2%, the inhibition at 0.1 µM was determined as 81.7 ± 2.1%, the inhibition at 1 µM came to 99.5 ± 0.1% and the inhibition at 10 µM came out at 97.6 ± 1.5%. In addition, the “cyclin D1 expression (western blot)” value in series [2] is given as “inhibited cyclin D1 expression”. Also, the “p21^Wif1/Cip1 expression (western blot)” value in series [3] is on record as “induced p21^Wif1/Cip1”.

Turning to `Fc1cccc(F)c1C#Cc1ccnc2ccccc12` [Compound 5o, 4-((2,6-Difluorophenyl)ethynyl)quinoline], the melting point was 101 to 102 °C. In series [1] (setting [8]), the inhibition at 1 µM came out at 15.4 ± 9.1% and the inhibition at 10 µM turned out to be 59 ± 7.5%.

For the compound `CNc1ncc(C#Cc2c(F)cccc2F)c2ccccc12` [Compound 5oo, 4-((2,6-Difluorophenyl)ethynyl)-N-methylisoquinolin-1-amine], the melting point lay in the range of 118 to 120 °C. Besides, in series [1], the IC50 amounted to 4.2 ± 0.2 nM. Further, in series [1] (setting [8]), the inhibition at 0.03 µM was found to be 94.5 ± 1.5%, the inhibition at 0.1 µM came to 99.5 ± 0.5%, the inhibition at 1 µM stood at 99.8 ± 0.2% and the inhibition at 10 µM turned out to be 98.9 ± 1%. The “cyclin D1 expression (western blot)” value in series [2] is given as “inhibited cyclin D1 expression”. Also, the “p21^Wif1/Cip1 expression (western blot)” value in series [3] is “induced p21^Wif1/Cip1”.

`Fc1cccc(F)c1C#Cc1cc2ccccc2nc1Cl` [Compound 5p, 2-Chloro-3-((2,6-difluorophenyl)ethynyl)quinoline] returned a melting point of 137 to 138 °C. Besides, in series [1] (setting [8]), the inhibition at 1 µM was determined as 28.4 ± 10.5% and the inhibition at 10 µM was 85.1 ± 6.2%.

For the compound `CN1CCN(c2ncc(C#Cc3c(F)cccc3F)c3ccccc23)CC1` [Compound 5pp, 4-((2,6-Difluorophenyl)ethynyl)-1-(4-methylpiperazin-1-yl)isoquinoline], in series [1] (setting [8]), the inhibition at 1 µM stood at 23.2 ± 9.4% and the inhibition at 10 µM came out at 100%. The water solubility result in series [4] is “completely water-soluble”.

`Fc1cccc(F)c1C#Cc1cnc2ccccc2c1Cl` [Compound 5q, 4-Chloro-3-((2,6-difluorophenyl)ethynyl)quinoline]: the melting point lay within 140 to 142 °C. Besides, the inhibition at 0.1 µM in series [1] (setting [5]) is 0%. Besides, the inhibition at 1 µM in series [1] (setting [6]) worked out at 51.5 ± 20.4%. In addition, the inhibition at 10 µM in series [1] (setting [7]) worked out at 80.4 ± 13.7%.

Compound `CN(C)c1ncc(C#Cc2c(F)cccc2F)c2ncccc12` [Compound 5qq, 8-((2,6-Difluorophenyl)ethynyl)-N,N-dimethyl-1,6-naphthyridin-5-amine] displayed a melting point of 149 to 150 °C. Further, in series [1] (setting [9]), the inhibition at 1 µM was more than 75%. For the same compound, in series [1] (setting [8]), the inhibition at 0.1 µM worked out at 59.5 ± 3.5%, the inhibition at 1 µM was found to be 87.9 ± 0.8% and the inhibition at 10 µM was 85.2 ± 1%. In addition, the water solubility entry in series [4] is on record as “completely water-soluble”.

In the case of `Fc1cccc(F)c1C#Cc1ccc2cncnc2c1` [Compound 5rr, 7-((2,6-Difluorophenyl)ethynyl)quinazoline], the melting point lay within 166 to 168 °C. For the same compound, in series [1] (setting [6]), the inhibition at 1 µM came out at 33.8 ± 4.8%. Moreover, the inhibition at 10 µM in series [1] (setting [7]) came to 96.3 ± 0.8%.

Consider `Fc1ccc2cc(C#Cc3c(F)cccc3F)cnc2c1` [Compound 5s, 3-((2,6-Difluorophenyl)ethynyl)-7-fluoroquinoline], for which the melting point is 142 to 143 °C. Besides, in series [1] (setting [8]), the inhibition at 0.1 µM came to 14.8 ± 5.5%, the inhibition at 1 µM turned out to be 69.4 ± 4.5% and the inhibition at 10 µM stood at 95.1 ± 1.6%.

The compound `Fc1cccc(F)c1C#Cc1cnc2c(F)cccc2c1` [Compound 5t, 3-((2,6-Difluorophenyl)ethynyl)-8-fluoroquinoline] came in with a melting point of 136 to 137 °C. In series [1] (setting [8]), the inhibition at 0.1 µM came out at 8.8 ± 5.1%, the inhibition at 1 µM stood at 63.6 ± 8.4% and the inhibition at 10 µM is 89.1 ± 8.2%.

With `Fc1cccc(F)c1C#Cc1ccnc2cc(Cl)ccc12` [Compound 5u, 7-Chloro-4-((2,6-difluorophenyl)ethynyl)quinoline], the melting point lay within 130 to 132 °C. For the same compound, in series [1] (setting [8]), the inhibition at 1 µM stood at 36 ± 0.4% and the inhibition at 10 µM was determined as 74.3 ± 0.2%.

Compound `Fc1cccc(F)c1C#Cc1cccc2ncccc12` [Compound 5v, 5-((2,6-Difluorophenyl)ethynyl)quinoline] had a melting point of 98 to 100 °C. Moreover, in series [1] (setting [8]), the inhibition at 1 µM was found to be 43.1 ± 11.2% and the inhibition at 10 µM worked out at 94.7 ± 2.9%.

Regarding `Fc1cccc(F)c1C#Cc1ccc2ncccc2c1` [Compound 5w, 6-((2,6-Difluorophenyl)ethynyl)quinoline], the melting point was 91 to 93 °C. In series [1] (setting [8]), the inhibition at 1 µM is 11 ± 30.4% and the inhibition at 10 µM is 80.1 ± 1%.

For `Fc1cccc(F)c1C#Cc1ccc2cccnc2c1` [Compound 5x, 7-((2,6-Difluorophenyl)ethynyl)quinoline], the melting point was in the range of 123 to 125 °C. The inhibition at 1 µM in series [1] (setting [9]) was more than 75%. In addition, in series [1] (setting [8]), the inhibition at 0.1 µM was 2.9 ± 14%, the inhibition at 1 µM came out at 90.7 ± 0.6% and the inhibition at 10 µM was found to be 99.4 ± 0.3%.

In turn, `Fc1cccc(F)c1C#Cc1cccc2cccnc12` [Compound 5y, 8-((2,6-Difluorophenyl)ethynyl)quinoline] had a melting point of 108 to 110 °C. In addition, in series [1] (setting [8]), the inhibition at 1 µM came out at 47.6 ± 3.5% and the inhibition at 10 µM came out at 92.7 ± 2.9%.

The compound `Fc1cccc(F)c1C#Cc1ccc2nc(Cl)ccc2c1` [Compound 5z, 2-Chloro-6-((2,6-difluorophenyl)ethynyl)quinoline] came in with a melting point of 137 to 138 °C. Further, in series [1] (setting [8]), the inhibition at 1 µM was 21.2 ± 11.4% and the inhibition at 10 µM worked out at 63.3 ± 2.3%.

`Fc1cncc(F)c1C#Cc1ccccc1` [Compound 7a, 3,5-Difluoro-4-(phenylethynyl)pyridine] showed a melting point of 52 to 54 °C. The “effects on LS174T colon cancer cell proliferation (Table 3)” value (“effects” for short) in series [1] (30 nM) is 5.3. Further, in series [1] (100 nM), the “effects” value stood at 24.7. Moreover, the “effects” value in series [1] (300 nM) stood at 12.2.

The compound `Nc1ccc(C#Cc2c(F)cncc2F)cc1` [Compound 7b, 4-((3,5-Difluoropyridin-4-yl)ethynyl)aniline] showed a melting point of 156 to 158 °C. Also, the “effects” value in series [1] (30 nM) is 11.4. Moreover, in series [1] (100 nM), the “effects” value was found to be 30.5. The “effects” value in series [1] (300 nM) came to 36.2.

In turn, `CNc1ccc(C#Cc2c(F)cncc2F)cc1` [Compound 7c, 4-((3,5-Difluoropyridin-4-yl)ethynyl)-N-methylaniline] came in with a melting point of 149 to 151 °C. In series [1] (30 nM), the “effects” value came to 20.3. The “effects” value in series [1] (100 nM) is given as 49.5. In series [1] (300 nM), the “effects” value was determined as 62.6.
